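Method: 48-hour compound exposure of cells in 96-well plates, five concentrations, linear interpolation of endpoints. Definition used: TGI = concentration required for complete inhibition of growth.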
What was measured:
Test in all cases: NCI-60 cell line screen, 48 h
[1] = test system: IGROV1 ovarian
[2] = test system: LXFL 529 NSCLC
[3] = test system: DLD-1 colon
[4] = test system: CAKI-1 renal
[5] = test system: HCC-2998 colon
[6] = test system: HL-60(TB) leukemia
[7] = test system: KM12 colon
[8] = test system: HCT-15 colon
[9] = test system: MOLT-4 leukemia
[10] = test system: K-562 leukemia
[11] = test system: NCI-H23 lung
[12] = test system: A549 NSCLC
[13] = test system: COLO 205 colon
[14] = test system: SNB-19 CNS
[15] = test system: NCI-H226 lung
[16] = test system: SF-539 CNS
[17] = test system: M19-MEL melanoma
[18] = test system: HOP-62 NSCLC
[19] = test system: SW-620 colon
[20] = test system: OVCAR-4 ovarian
[21] = test system: DMS 114 small cell lung
[22] = test system: SN12C renal
[23] = test system: M14 melanoma
[24] = test system: CCRF-CEM leukemia
[25] = test system: HOP-18 NSCLC
[26] = test system: MALME-3M melanoma
[27] = test system: U251 CNS
[28] = test system: HCT-116 colon
[29] = test system: DU-145 prostate
[30] = test system: SK-MEL-28 melanoma
[31] = test system: NCI-H460 lung
[32] = test system: HT29 colon
[33] = test system: OVCAR-5 ovarian
[34] = test system: UO-31 renal
[35] = test system: UACC-257 melanoma
[36] = test system: NCI-H522 lung
[37] = test system: XF 498 CNS
[38] = test system: OVCAR-3 ovarian
[39] = test system: RXF 393 renal
[40] = test system: RPMI-8226 leukemia
[41] = test system: SNB-78 CNS
[42] = test system: ACHN renal
[43] = test system: UACC-62 melanoma
[44] = test system: OVCAR-8 ovarian
[45] = test system: SK-MEL-2 melanoma
[46] = test system: TK-10 renal
[47] = test system: SK-MEL-5 melanoma
[48] = test system: SK-OV-3 ovarian
[49] = test system: SNB-75 CNS
[50] = test system: DMS 273 small cell lung
[51] = test system: HOP-92 NSCLC
[52] = test system: SF-268 CNS
[53] = test system: EKVX NSCLC
[54] = test system: SF-295 CNS
[55] = test system: 786-0 renal
[56] = test system: KM20L2 colon
[57] = test system: A498 renal
[58] = test system: LOX IMVI melanoma
[59] = test system: SR leukemia

Which results are given for CCN(CC)CCOc1ccc(/C=C(\C#N)c2ccc(OCCN(CC)CC)cc2)cc1?
TGI [1]: > 52.4 µM; TGI [2]: 41.3 µM; TGI [3]: > 83.3 µM; TGI [4]: > 60.1 µM; TGI [5]: 32.3 µM; TGI [6]: 38.2 µM; TGI [7]: 23.2 µM; TGI [8]: 30.8 µM; TGI [9]: 38.2 µM; TGI [10]: 23.5 µM; TGI [11]: 42.6 µM; TGI [12]: 44.7 µM; TGI [13]: 23 µM; TGI [14]: > 92 µM; TGI [15]: > 78.4 µM; TGI [16]: 20.6 µM; TGI [17]: 28.9 µM; TGI [18]: 22.6 µM; TGI [19]: 29.6 µM; TGI [20]: > 75.4 µM; TGI [21]: 23.2 µM; TGI [22]: > 100 µM; TGI [23]: 19.9 µM; TGI [24]: 44.2 µM; TGI [25]: 57.3 µM; TGI [26]: 28 µM; TGI [27]: 35.8 µM; TGI [28]: 21.9 µM; TGI [29]: > 100 µM; TGI [30]: 32 µM; TGI [31]: 36.6 µM; TGI [32]: 8.58 µM; TGI [33]: > 66 µM; TGI [34]: 31.2 µM; TGI [35]: 31.3 µM; TGI [36]: 24.9 µM; TGI [37]: 29.3 µM; TGI [38]: > 63.1 µM; TGI [39]: 27.9 µM; TGI [40]: 50.1 µM; TGI [41]: > 87.5 µM; TGI [42]: > 58.8 µM; TGI [43]: 31.9 µM; TGI [44]: 42.6 µM; TGI [45]: 39.9 µM; TGI [46]: > 91.3 µM; TGI [47]: 15.9 µM; TGI [48]: > 64.2 µM; TGI [49]: 47.8 µM; TGI [50]: 26.5 µM; TGI [51]: 55.4 µM; TGI [52]: 53.9 µM; TGI [53]: > 80.6 µM; TGI [54]: 28 µM; TGI [55]: 25.5 µM; TGI [56]: 4.5 µM; TGI [57]: 32.2 µM; TGI [58]: 25.5 µM; TGI [59]: 30 µM

Which results are given for C=C(CCCCC)CN1CCCC1[C@@](C)(O)CC(=O)OCC (some centres not stated)?
TGI [1]: > 100 µM; TGI [2]: > 100 µM; TGI [3]: > 100 µM; TGI [4]: > 100 µM; TGI [5]: > 100 µM; TGI [6]: > 100 µM; TGI [7]: > 100 µM; TGI [8]: > 100 µM; TGI [9]: > 100 µM; TGI [10]: > 100 µM; TGI [11]: > 100 µM; TGI [12]: > 100 µM; TGI [13]: > 100 µM; TGI [14]: > 100 µM; TGI [15]: > 100 µM; TGI [16]: > 100 µM; TGI [17]: > 100 µM; TGI [18]: > 100 µM; TGI [19]: > 100 µM; TGI [20]: > 100 µM; TGI [21]: > 100 µM; TGI [22]: > 100 µM; TGI [23]: > 100 µM; TGI [24]: > 100 µM; TGI [25]: > 100 µM; TGI [26]: > 100 µM; TGI [27]: > 100 µM; TGI [28]: > 100 µM; TGI [30]: > 100 µM; TGI [31]: > 100 µM; TGI [32]: > 100 µM; TGI [33]: > 100 µM; TGI [34]: > 100 µM; TGI [35]: > 100 µM; TGI [36]: > 100 µM; TGI [37]: > 100 µM; TGI [38]: > 100 µM; TGI [39]: > 100 µM; TGI [40]: > 100 µM; TGI [41]: > 100 µM; TGI [42]: > 100 µM; TGI [43]: > 100 µM; TGI [44]: > 100 µM; TGI [45]: > 100 µM; TGI [46]: > 100 µM; TGI [47]: > 100 µM; TGI [48]: > 100 µM; TGI [49]: > 100 µM; TGI [50]: > 100 µM; TGI [51]: > 100 µM; TGI [52]: > 100 µM; TGI [53]: > 100 µM; TGI [54]: > 100 µM; TGI [55]: > 100 µM; TGI [56]: > 100 µM; TGI [57]: > 100 µM; TGI [58]: > 100 µM; TGI [59]: > 100 µM
